Counter-ions that a name gives are not always drawn.
System: skin
Test: Photodynamic peeling: ointment applied to facial skin, then 635 nm excimer dye laser irradiation
Settings: for time at which peeling was completed after the operation: 635 nm
[1] = Example 1: 10 g of 20% ointment, left half of face, 4 hours, 5 J/cm^2 for 30 minutes
[2] = Example 2: 5 g of 20% ointment, right cheek, 12 hours, 5 J/cm^2 for 15 minutes

day from which edematous erythema gradually disappeared [1]: 3 days
day from which edematous erythema gradually disappeared [2]: 3 days
SMILES: NCC(=O)CCC(=O)O [5-ALA hydrochloride, 5-aminolevulinic acid]
condition of treated part in follow-up survey (Example 1: 6 months after the treatment): still remained in favorable conditions
skin reaction at the affected part after irradiation [1]: edematous erythema was formed at the affected part
time at which peeling was completed after the operation (Example 1: person, 10 g of 20% by weight ointment on left half of face, 4 hours shaded, 5 J/cm^2 for 30 minutes): 3 weeks
skin tension, wrinkles, pigmentation, acne spots compared with the untreated right part of the face (Example 1: treated left versus right part of face): obviously relieved
skin reaction at the affected part after irradiation [2]: edematous erythema was formed at the affected part
condition of treated part in follow-up survey (Example 2: 6 months after the treatment): still remained in favorable conditions
time at which peeling was completed after the operation (Example 2: person, 5 g of 20% by weight ointment on right cheek (6 cm×6 cm), 12 hours shaded, 5 J/cm^2 for 15 minutes): 6 days
skin tension, wrinkles, pigmentation, acne spots compared with the corresponding part in the left cheek (Example 2: treated right cheek versus left cheek): obviously relieved
